This passage reports IC50 results from US20260242419A1, “A CYCLIC PEPTIDE FOR TRAPPING INTERLEUKIN-1 BETA” (Merck Sharp & Dohme LLC, priority 2023, published 2026).

pIC50: −log10 of the molar value. Starred links: 1 amine or outer side, 2 acyl side, 3 side chain; linkers in the order of their positions; H or OH if unused. Non-standard residues stand in square brackets, D forms with d. Residues, ends and D or L forms follow the SMILES beside them. X39 = CNc1ncc(-c2ccc(C[C@H]3CCN([*:1])[C@H]3C(=O)[*:2])cc2)cn1; dPro(4R-(4-pyridylmethyl)) = O=C(O)[C@H]1C[C@@H](Cc2ccncc2)CN1; dPro(3S-(4-Br-benzyl)) = O=C(O)[C@@H]1NCC[C@@H]1Cc1ccc(Br)cc1; Trp(βS-Me,4-F) = C[C@@H](c1c[nH]c2cccc(F)c12)[C@H](N)C(=O)O; X42 = O=C([C@H]1[C@@H](Cc2ccc(-c3cncnc3)cc2)CCN1[*:1])[*:2]; Bip(4'-COOH) = N[C@@H](Cc1ccc(-c2ccc(C(=O)O)cc2)cc1)C(=O)O; Ala(1-bicyclo(1.1.1)pentyl) = N[C@@H](CC12CC(C1)C2)C(=O)O; dPro(4R-Bzl(4-F)) = O=C(O)[C@H]1C[C@@H](Cc2ccc(F)cc2)CN1; Ala(pyrimidin-5-yl) = N[C@@H](Cc1cncnc1)C(=O)O; Phe(4-COOH) = N[C@@H](Cc1ccc(C(=O)O)cc1)C(=O)O; Pro(cis-4-F) = O=C(O)[C@@H]1C[C@H](F)CN1; AEF = NCCOc1ccc(C[C@H](N)C(=O)O)cc1; 4Pal = N[C@@H](Cc1ccncc1)C(=O)O; Cit = NC(=O)NCCC[C@H](N)C(=O)O; Dab = NCC[C@H](N)C(=O)O; Dap = NC[C@H](N)C(=O)O; Aib = CC(C)(N)C(=O)O

The target in this test is T1, IL-1β (Homo sapiens, UniProt P01584).
T1 construct: purchased BioLegend 579404
T1 sequence (P01584 117-269): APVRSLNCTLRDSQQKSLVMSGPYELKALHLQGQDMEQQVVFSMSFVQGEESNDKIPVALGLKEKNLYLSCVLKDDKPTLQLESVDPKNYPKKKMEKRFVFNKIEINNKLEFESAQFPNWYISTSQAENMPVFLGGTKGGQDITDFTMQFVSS
The experiment in a line: IL-6 assay in MRC5 cells: inhibition of IL-1β induced IL-6 secretion (AlphaLISA). It is filed as cell-based. The conditions noted are these: inhibition of IL-1β induced IL-6 secretion in MRC5 cells; read-out: MRC5 IC50. In outline:
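Compound was pre-incubated 1 h at ambient temperature with recombinant human IL-1β at 2λ EC80 before adding human lung fibroblast MRC5 cells (3000/well) in EMEM with 0.025% BSA. After overnight culture at 37 °C, 5% CO2, secreted IL-6 in conditioned medium was measured by AlphaLISA; IC50 from 4-parameter logistic fits.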
`C[C@@H](c1c[nH]c2cccc(F)c12)[C@@H]1NC(=O)[C@@H]2C[C@H](F)CN2C(=O)CNC(=O)[C@H](Cc2ccc(C(=O)O)cc2)NC(=O)[C@H](CC23CC(C2)C3)NC(=O)[C@H](Cc2ccc(-c3ccc(C(=O)O)cc3)cc2)NC(=O)[C@H]2C[C@@H](Cc3ccncc3)CN2C(=O)CNC(=O)[C@H](CCN)NC(=O)[C@H](CCC(N)=O)NC(=O)[C@H](Cc2cncnc2)NC(=O)C(C)(C)NC(=O)[C@H](Cc2c[nH]c3ccccc23)NC(=O)[C@H](CCC(=O)O)NC(=O)C(C)(C)NC1=O` [Example 43] (cyclo([Bip(4'-COOH)][Ala(1-bicyclo(1.1.1)pentyl)][Phe(4-COOH)]G[Pro(cis-4-F)][Trp(βS-Me,4-F)][Aib]EW[Aib][Ala(pyrimidin-5-yl)]Q[Dab]G[dPro(4R-(4-pyridylmethyl))])): the pIC50 was 10.59.

For `C[C@@H](c1c[nH]c2cccc(F)c12)[C@@H]1NC(=O)[C@@H]2C[C@H](F)CN2C(=O)CNC(=O)[C@H](Cc2ccc(C(=O)O)cc2)NC(=O)[C@H](CC23CC(C2)C3)NC(=O)[C@H](Cc2ccc(-c3ccc(C(=O)O)cc3)cc2)NC(=O)[C@H]2C[C@@H](Cc3ccncc3)CN2C(=O)CNC(=O)[C@H](CCN)NC(=O)[C@H](CCC(N)=O)NC(=O)[C@H](Cc2cncnc2)NC(=O)C(C)(C)NC(=O)[C@H](Cc2c[nH]c3ccccc23)NC(=O)[C@H](CO)NC(=O)C(C)(C)NC1=O` [Example 44] (cyclo([Aib]SW[Aib][Ala(pyrimidin-5-yl)]Q[Dab]G[dPro(4R-(4-pyridylmethyl))][Bip(4'-COOH)][Ala(1-bicyclo(1.1.1)pentyl)][Phe(4-COOH)]G[Pro(cis-4-F)][Trp(βS-Me,4-F)])), the pIC50 was 10.68. To `C[C@@H](c1c[nH]c2cccc(F)c12)[C@@H]1NC(=O)[C@@H]2C[C@H](F)CN2C(=O)CNC(=O)[C@H](Cc2ccc(C(=O)O)cc2)NC(=O)[C@H](CC23CC(C2)C3)NC(=O)[C@H](Cc2ccc(-c3ccc(C(=O)O)cc3)cc2)NC(=O)[C@H]2C[C@@H](Cc3ccncc3)CN2C(=O)CNC(=O)[C@H](CCN)NC(=O)[C@H](CCC(N)=O)NC(=O)[C@H](Cc2ccncc2)NC(=O)C(C)(C)NC(=O)[C@H](Cc2c[nH]c3ccccc23)NC(=O)[C@H](CCC(=O)O)NC(=O)C(C)(C)NC1=O` [Example 45] (cyclo([Bip(4'-COOH)][Ala(1-bicyclo(1.1.1)pentyl)][Phe(4-COOH)]G[Pro(cis-4-F)][Trp(βS-Me,4-F)][Aib]EW[Aib][4Pal]Q[Dab]G[dPro(4R-(4-pyridylmethyl))])) belongs 10.57; to `C[C@@H](c1c[nH]c2cccc(F)c12)[C@@H]1NC(=O)[C@@H]2C[C@H](F)CN2C(=O)CNC(=O)[C@H](Cc2ccc(C(=O)O)cc2)NC(=O)[C@H](CC23CC(C2)C3)NC(=O)[C@H](Cc2ccc(-c3ccc(C(=O)O)cc3)cc2)NC(=O)[C@H]2C[C@@H](Cc3ccncc3)CN2C(=O)CNC(=O)[C@H](CN)NC(=O)[C@H](CCC(N)=O)NC(=O)[C@H](Cc2cncnc2)NC(=O)C(C)(C)NC(=O)[C@H](Cc2c[nH]c3ccccc23)NC(=O)[C@H](CCC(=O)O)NC(=O)C(C)(C)NC1=O` [Example 46] (cyclo([Bip(4'-COOH)][Ala(1-bicyclo(1.1.1)pentyl)][Phe(4-COOH)]G[Pro(cis-4-F)][Trp(βS-Me,4-F)][Aib]EW[Aib][Ala(pyrimidin-5-yl)]Q[Dap]G[dPro(4R-(4-pyridylmethyl))])), 10.47.

Take `C[C@@H](c1c[nH]c2cccc(F)c12)[C@@H]1NC(=O)[C@@H]2C[C@H](F)CN2C(=O)CNC(=O)[C@H](Cc2ccc(C(=O)O)cc2)NC(=O)[C@H](Cc2ccncc2)NC(=O)[C@H](Cc2ccc(-c3ccc(C(=O)O)cc3)cc2)NC(=O)[C@H]2C[C@@H](Cc3ccncc3)CN2C(=O)CNC(=O)[C@H](CN)NC(=O)[C@H](CCC(N)=O)NC(=O)[C@H](Cc2ccncc2)NC(=O)C(C)(C)NC(=O)[C@H](Cc2c[nH]c3ccccc23)NC(=O)[C@H](CCC(=O)O)NC(=O)C(C)(C)NC1=O` [Example 47] (cyclo([Bip(4'-COOH)][4Pal][Phe(4-COOH)]G[Pro(cis-4-F)][Trp(βS-Me,4-F)][Aib]EW[Aib][4Pal]Q[Dap]G[dPro(4R-(4-pyridylmethyl))])): the pIC50 is 10.54. To `C[C@@H](c1c[nH]c2cccc(F)c12)[C@@H]1NC(=O)[C@@H]2C[C@H](F)CN2C(=O)CNC(=O)[C@H](Cc2ccc(C(=O)O)cc2)NC(=O)[C@H](CC23CC(C2)C3)NC(=O)[C@H](Cc2ccc(-c3ccc(C(=O)O)cc3)cc2)NC(=O)[C@H]2C[C@@H](Cc3ccncc3)CN2C(=O)CNC(=O)[C@H](CN)NC(=O)[C@H](CCC(N)=O)NC(=O)[C@H](Cc2ccncc2)NC(=O)C(C)(C)NC(=O)[C@H](Cc2c[nH]c3ccccc23)NC(=O)[C@H](CCC(=O)O)NC(=O)C(C)(C)NC1=O` [Example 48] (cyclo([4Pal]Q[Dap]G[dPro(4R-(4-pyridylmethyl))][Bip(4'-COOH)][Ala(1-bicyclo(1.1.1)pentyl)][Phe(4-COOH)]G[Pro(cis-4-F)][Trp(βS-Me,4-F)][Aib]EW[Aib])) belongs 10.57.

For the compound `CC(=O)NCCOc1ccc(C[C@@H]2NC(=O)[C@H]3C[C@@H](Cc4ccncc4)CN3C(=O)CNC(=O)[C@H](CCN)NC(=O)[C@H](CCC(N)=O)NC(=O)[C@H](Cc3cncnc3)NC(=O)C(C)(C)NC(=O)[C@H](Cc3c[nH]c4ccccc34)NC(=O)[C@H](CCC(=O)O)NC(=O)C(C)(C)NC(=O)[C@H]([C@@H](C)c3c[nH]c4cccc(F)c34)NC(=O)[C@@H]3C[C@H](F)CN3C(=O)CNC(=O)[C@H](Cc3ccc(C(=O)O)cc3)NC(=O)[C@H](Cc3ccncc3)NC2=O)cc1` [Example 49] (cyclo([AEF](Ac)[4Pal][Phe(4-COOH)]G[Pro(cis-4-F)][Trp(βS-Me,4-F)][Aib]EW[Aib][Ala(pyrimidin-5-yl)]Q[Dab]G[dPro(4R-(4-pyridylmethyl))])), the pIC50 is 10.33. For the compound `CC(=O)NCCOc1ccc(C[C@@H]2NC(=O)[C@H]3C[C@@H](Cc4ccncc4)CN3C(=O)CNC(=O)[C@H](CCN)NC(=O)[C@H](CCC(N)=O)NC(=O)[C@H](Cc3cncnc3)NC(=O)C(C)(C)NC(=O)[C@H](Cc3c[nH]c4ccccc34)NC(=O)[C@H](CCC(=O)O)NC(=O)C(C)(C)NC(=O)[C@H]([C@@H](C)c3c[nH]c4cccc(F)c34)NC(=O)[C@@H]3C[C@H](F)CN3C(=O)CNC(=O)[C@H](Cc3ccc(C(=O)O)cc3)NC(=O)[C@H](CC34CC(C3)C4)NC2=O)cc1` [Example 50] (cyclo([AEF](Ac)[Ala(1-bicyclo(1.1.1)pentyl)][Phe(4-COOH)]G[Pro(cis-4-F)][Trp(βS-Me,4-F)][Aib]EW[Aib][Ala(pyrimidin-5-yl)]Q[Dab]G[dPro(4R-(4-pyridylmethyl))])), the pIC50 was 10.36. For `C[C@@H](c1c[nH]c2cccc(F)c12)[C@@H]1NC(=O)[C@@H]2C[C@H](F)CN2C(=O)CNC(=O)[C@H](Cc2ccc(C(=O)O)cc2)NC(=O)[C@H](Cc2ccncc2)NC(=O)[C@H](Cc2ccc(-c3ccc(C(=O)O)cc3)cc2)NC(=O)[C@H]2[C@@H](Cc3ccc(Br)cc3)CCN2C(=O)CNC(=O)[C@H](CCN)NC(=O)[C@H](CCC(N)=O)NC(=O)[C@H](Cc2cncnc2)NC(=O)C(C)(C)NC(=O)[C@H](Cc2c[nH]c3ccccc23)NC(=O)[C@H](CCC(=O)O)NC(=O)C(C)(C)NC1=O` [Example 51] (cyclo([4Pal][Phe(4-COOH)]G[Pro(cis-4-F)][Trp(βS-Me,4-F)][Aib]EW[Aib][Ala(pyrimidin-5-yl)]Q[Dab]G[dPro(3S-(4-Br-benzyl))][Bip(4'-COOH)])), the pIC50 is 10.85. To `C[C@@H](c1c[nH]c2cccc(F)c12)[C@@H]1NC(=O)[C@@H]2C[C@H](F)CN2C(=O)CNC(=O)[C@H](Cc2ccc(C(=O)O)cc2)NC(=O)[C@H](Cc2ccncc2)NC(=O)[C@H](Cc2ccc(-c3ccc(C(=O)O)cc3)cc2)NC(=O)[C@H]2C[C@@H](Cc3ccc(F)cc3)CN2C(=O)CNC(=O)[C@H](CCN)NC(=O)[C@H](CCC(N)=O)NC(=O)[C@H](CCCNC(N)=O)NC(=O)C(C)(C)NC(=O)[C@H](Cc2c[nH]c3ccccc23)NC(=O)[C@H](CCC(=O)O)NC(=O)C(C)(C)NC1=O` [Example 52] (cyclo([Bip(4'-COOH)][4Pal][Phe(4-COOH)]G[Pro(cis-4-F)][Trp(βS-Me,4-F)][Aib]EW[Aib][Cit]Q[Dab]G[dPro(4R-Bzl(4-F))])) belongs 10.68; to `C[C@@H](c1c[nH]c2cccc(F)c12)[C@@H]1NC(=O)[C@@H]2C[C@H](F)CN2C(=O)CNC(=O)[C@H](Cc2ccc(C(=O)O)cc2)NC(=O)[C@H](Cc2ccncc2)NC(=O)[C@H](Cc2ccc(-c3ccc(C(=O)O)cc3)cc2)NC(=O)[C@H]2[C@@H](Cc3ccc(-c4cncnc4)cc3)CCN2C(=O)CNC(=O)[C@H](CCN)NC(=O)[C@H](CCC(N)=O)NC(=O)[C@H](Cc2cncnc2)NC(=O)C(C)(C)NC(=O)[C@H](Cc2c[nH]c3ccccc23)NC(=O)[C@H](CCC(=O)O)NC(=O)C(C)(C)NC1=O` [Example 53] (cyclo([Bip(4'-COOH)][4Pal][Phe(4-COOH)]G[Pro(cis-4-F)][Trp(βS-Me,4-F)][Aib]EW[Aib][Ala(pyrimidin-5-yl)]Q[Dab]G[X42])), 10.74; to `CNc1ncc(-c2ccc(C[C@H]3CCN4C(=O)CNC(=O)[C@H](CCN)NC(=O)[C@H](CCC(N)=O)NC(=O)[C@H](Cc5cncnc5)NC(=O)C(C)(C)NC(=O)[C@H](Cc5c[nH]c6ccccc56)NC(=O)[C@H](CCC(=O)O)NC(=O)C(C)(C)NC(=O)[C@H]([C@@H](C)c5c[nH]c6cccc(F)c56)NC(=O)[C@@H]5C[C@H](F)CN5C(=O)CNC(=O)[C@H](Cc5ccc(C(=O)O)cc5)NC(=O)[C@H](Cc5ccncc5)NC(=O)[C@H](Cc5ccc(-c6ccc(C(=O)O)cc6)cc5)NC(=O)[C@@H]34)cc2)cn1` [Example 54] (cyclo([Bip(4'-COOH)][4Pal][Phe(4-COOH)]G[Pro(cis-4-F)][Trp(βS-Me,4-F)][Aib]EW[Aib][Ala(pyrimidin-5-yl)]Q[Dab]G[X39])), 10.68.
